Values quoted from earlier work in patent EP3373945B1, “AN ORAL DRUG FORMULATION COMPRISING SILYBIN” (ISTITUTO BIOCHIMICO ITALIANO GIOVANNI LORENZINI S.p.A., priority 2015, dated 2017).
Values after ≈ are worked out from the molar mass of the structure shown.

water solubility: 430 µg/mL (≈ 891 µM)
SMILES: COc1cc(C2Oc3cc([C@H]4Oc5cc(O)cc(O)c5C(=O)[C@@H]4O)ccc3OC2CO)ccc1O (stereo partly shown) [silybin]
